Test results as given in US20110200993A1, “NEW TREATMENT OF AUTOIMMUNE CONDITIONS” (priority 2007, published 2011).

Tested on: system A transporters (including Slc38A1)
Experiment: Effect of blocking system A transport on arthritis in mice
Format: in vivo
Excerpt: FIG. 3 is a graph showing the effect of blocking the system A transporters (including Slc38A1) on (A) mean arthritis score and (B) anti collagen antibody production. P=<0.05, n=20.
This confirms that disease susceptibility can be changed both by increased and decreased transporter activity.

Q: Which arthritis susceptibility does the source give for `CNC(C)(C)C(=O)O` [MeAIB] here?
A: Its arthritis susceptibility is “increases arthritis susceptibility”.
